PubChem BioAssay AID1259407 (Chemical Carcinogenesis Research Information System (CCRIS), 2018)
Activity calls are given as the source filed them. How the calls were made is not given here.

Tested on: CCRIS mutagenicity, Ames/micronucleus/aberration tests
Assay: CCRIS mutagenicity studies
[1] = Test System: AMES SALMONELLA TYPHIMURIUM, Strain/Indicator: TA98, Metabolic Activation: NONE, Method: STANDARD PLATE
[2] = Test System: AMES SALMONELLA TYPHIMURIUM, Strain/Indicator: TA100, Metabolic Activation: NONE, Method: STANDARD PLATE
[3] = Test System: AMES SALMONELLA TYPHIMURIUM, Strain/Indicator: TA102, Metabolic Activation: NONE, Method: STANDARD PLATE
[4] = Test System: AMES SALMONELLA TYPHIMURIUM, Strain/Indicator: TA1535, Metabolic Activation: NONE, Method: STANDARD PLATE
[5] = Test System: AMES SALMONELLA TYPHIMURIUM, Strain/Indicator: TA1537, Metabolic Activation: NONE, Method: STANDARD PLATE
[6] = Test System: AMES SALMONELLA TYPHIMURIUM, Strain/Indicator: TA97, Metabolic Activation: NONE, Method: STANDARD PLATE

`C[C@]1(Cn2ccnn2)[C@H](C(=O)O)N2C(=O)C[C@H]2S1(=O)=O` was tested, and the mutagenic call (Test System: AMES SALMONELLA TYPHIMURIUM, Strain/Indicator: TA98, Metabolic Activation: HAMSTER, LIVER, S-9, AROCLOR 1254, Method: STANDARD PLATE) was “inactive; negative”, the mutagenic call (Test System: AMES SALMONELLA TYPHIMURIUM, Strain/Indicator: TA98, Metabolic Activation: NONE, Method: PREINCUBATION) was “inactive; negative” and the mutagenic call [1] was “inactive; negative”. For the same compound, the mutagenic call (Test System: AMES SALMONELLA TYPHIMURIUM, Strain/Indicator: TA98, Metabolic Activation: S-9, Method: PREINCUBATION) was “inactive; negative”, the mutagenic call (Test System: AMES SALMONELLA TYPHIMURIUM, Strain/Indicator: TA100, Metabolic Activation: HAMSTER, LIVER, S-9, AROCLOR 1254, Method: STANDARD PLATE) was “inactive; negative” and the mutagenic call (Test System: AMES SALMONELLA TYPHIMURIUM, Strain/Indicator: TA100, Metabolic Activation: NONE, Method: PREINCUBATION) was “inactive; negative”. The mutagenic call [2] was “inactive; negative”, the mutagenic call (Test System: AMES SALMONELLA TYPHIMURIUM, Strain/Indicator: TA100, Metabolic Activation: S-9, Method: PREINCUBATION) was “inactive; negative” and the mutagenic call (Test System: AMES SALMONELLA TYPHIMURIUM, Strain/Indicator: TA102, Metabolic Activation: HAMSTER, LIVER, S-9, AROCLOR 1254, Method: STANDARD PLATE) was “inactive; negative”. The mutagenic call [3] was “inactive; negative”, the mutagenic call (Test System: AMES SALMONELLA TYPHIMURIUM, Strain/Indicator: TA1535, Metabolic Activation: NONE, Method: PREINCUBATION) was “inactive; negative” and the mutagenic call (Test System: AMES SALMONELLA TYPHIMURIUM, Strain/Indicator: TA1535, Metabolic Activation: S-9, Method: PREINCUBATION) was “inactive; negative”. For the same compound, the mutagenic call (Test System: AMES SALMONELLA TYPHIMURIUM, Strain/Indicator: TA1537, Metabolic Activation: NONE, Method: PREINCUBATION) was “inactive; negative”, the mutagenic call (Test System: AMES SALMONELLA TYPHIMURIUM, Strain/Indicator: TA1537, Metabolic Activation: S-9, Method: PREINCUBATION) was “inactive; negative” and the mutagenic call (Test System: E. COLI, Strain/Indicator: WP2 UVRA, Metabolic Activation: NONE, Method: PREINCUBATION) was “inactive; negative”. The mutagenic call (Test System: E. COLI, Strain/Indicator: WP2 UVRA, Metabolic Activation: S-9, Method: PREINCUBATION) was “inactive; negative”.

With `O=Cc1ccc(C(=O)ON(OCc2ccccc2)C(=O)c2ccccc2)cc1` the mutagenic call [2] was “active; positive” and the mutagenic call (Test System: AMES SALMONELLA TYPHIMURIUM, Strain/Indicator: TA100, Metabolic Activation: RAT, S-9, AROCLOR, Method: STANDARD PLATE) was “active; positive”.

In the case of `O=C(CCl)Nc1snc2ccccc12`, the mutagenic call [1] is reported as “inactive; negative”, the mutagenic call (Test System: AMES SALMONELLA TYPHIMURIUM, Strain/Indicator: TA98, Metabolic Activation: S-9, Method: STANDARD PLATE) is reported as “active; positive” and the mutagenic call [2] is reported as “inactive; negative”. The mutagenic call (Test System: AMES SALMONELLA TYPHIMURIUM, Strain/Indicator: TA100, Metabolic Activation: S-9, Method: STANDARD PLATE) was “active; positive”, the mutagenic call [4] was “inactive; negative” and the mutagenic call (Test System: AMES SALMONELLA TYPHIMURIUM, Strain/Indicator: TA1535, Metabolic Activation: S-9, Method: STANDARD PLATE) was “inactive; negative”. For the same compound, the mutagenic call [5] was “active; positive” and the mutagenic call (Test System: AMES SALMONELLA TYPHIMURIUM, Strain/Indicator: TA1537, Metabolic Activation: S-9, Method: STANDARD PLATE) was “active; positive”.

With `CNP(=O)(N(C)C)N(C)C` the mutagenic call (Test System: AMES SALMONELLA TYPHIMURIUM, Strain/Indicator: TA100, Metabolic Activation: NONE, Method: SUSPENSION) was “inactive; negative” and the mutagenic call (Test System: AMES SALMONELLA TYPHIMURIUM, Strain/Indicator: TA100, Metabolic Activation: RAT, LIVER, S-9, AROCLOR 1254, Method: SUSPENSION) was “active; positive”.

For `O=C([O-])c1cccnc1Nc1cccc(C(F)(F)F)c1.O=C([O-])c1cccnc1Nc1cccc(C(F)(F)F)c1.OCc1cccnc1.OCc1cccnc1.[Cu+2]`, the mutagenic call (Test System: AMES SALMONELLA TYPHIMURIUM, Strain/Indicator: TA97, Metabolic Activation: MOUSE, LIVER, S-9, Method: STANDARD PLATE) was “inactive; negative”, the mutagenic call [6] was “inactive; negative” and the mutagenic call (Test System: AMES SALMONELLA TYPHIMURIUM, Strain/Indicator: TA97, Metabolic Activation: RAT LIVER S-9, DELOR 103, Method: STANDARD PLATE) was “inactive; negative”. For the same compound, the mutagenic call (Test System: AMES SALMONELLA TYPHIMURIUM, Strain/Indicator: TA98, Metabolic Activation: MOUSE, LIVER, S-9, Method: STANDARD PLATE) was “inactive; negative”, the mutagenic call [1] was “inactive; negative” and the mutagenic call (Test System: AMES SALMONELLA TYPHIMURIUM, Strain/Indicator: TA98, Metabolic Activation: RAT LIVER S-9, DELOR 103, Method: STANDARD PLATE) was “inactive; negative”. The mutagenic call (Test System: AMES SALMONELLA TYPHIMURIUM, Strain/Indicator: TA100, Metabolic Activation: MOUSE, LIVER, S-9, Method: STANDARD PLATE) was “inactive; negative”, the mutagenic call [2] was “inactive; negative” and the mutagenic call (Test System: AMES SALMONELLA TYPHIMURIUM, Strain/Indicator: TA100, Metabolic Activation: RAT LIVER S-9, DELOR 103, Method: STANDARD PLATE) was “inactive; negative”. For the same compound, the mutagenic call (Test System: AMES SALMONELLA TYPHIMURIUM, Strain/Indicator: TA102, Metabolic Activation: MOUSE, LIVER, S-9, Method: STANDARD PLATE) was “inactive; negative”, the mutagenic call [3] was “inactive; negative” and the mutagenic call (Test System: AMES SALMONELLA TYPHIMURIUM, Strain/Indicator: TA102, Metabolic Activation: RAT LIVER S-9, DELOR 103, Method: STANDARD PLATE) was “inactive; negative”.

`c1ccc2c(c1)-c1cc3ccccc3c3cc4c(c-2c13)CCCC4` was tested, and the mutagenic call (Test System: AMES SALMONELLA TYPHIMURIUM, Strain/Indicator: TA100, Metabolic Activation: RAT, LIVER, S-9, 3-METHYLCHOLANTHRENE, Method: STANDARD PLATE) was “active; positive”.

For `CCOC(=O)OC(=O)OCC`, the mutagenic call [1] was “inactive; negative” and the mutagenic call [2] was “inactive; negative”.

With `CNCC(O)c1ccc(O)c(O)c1` (centres undefined) the mutagenic call [3] was “inactive; negative”, the mutagenic call (Test System: AMES SALMONELLA TYPHIMURIUM, Strain/Indicator: TA2638, Metabolic Activation: NONE, Method: STANDARD PLATE) was “inactive; negative” and the mutagenic call (Test System: E. COLI, Strain/Indicator: WP2 (PKM101), Metabolic Activation: NONE, Method: STANDARD PLATE) was “inactive; negative”. The mutagenic call (Test System: E. COLI, Strain/Indicator: WP2 UVRA (PKM101), Metabolic Activation: NONE, Method: STANDARD PLATE) was “inactive; negative”.

With `O=c1c(O)c2c(c3c1ccc1[nH]cccc13)O2` the mutagenic call [2] was “inactive; negative”.

For `CC[C@@H](C)OS(C)(=O)=O`, the mutagenic call [2] was “inactive; negative”, the mutagenic call [4] was “active; positive” and the mutagenic call (Test System: CHINESE HAMSTER V-79, Strain/Indicator: V-79/6-THIOGUANINE, Metabolic Activation: NONE) was “active; positive”.

With `OC1CC=Cc2c1cc1ccc3cccc4ccc2c1c34` (centres undefined) the mutagenic call (Test System: AMES SALMONELLA TYPHIMURIUM, Strain/Indicator: TA98, Metabolic Activation: RAT, LIVER, S-9, AROCLOR 1254, Method: STANDARD PLATE) was “active; positive”.

`CN(C)CCCn1cc[n+](C)c1/C=N/O` was tested, and the mutagenic call [6] was “inactive; negative”, the mutagenic call (Test System: AMES SALMONELLA TYPHIMURIUM, Strain/Indicator: TA97, Metabolic Activation: RAT, LIVER, S-9, Method: STANDARD PLATE) was “inactive; negative” and the mutagenic call [2] was “inactive; negative”. The mutagenic call (Test System: AMES SALMONELLA TYPHIMURIUM, Strain/Indicator: TA100, Metabolic Activation: RAT, LIVER, S-9, Method: STANDARD PLATE) was “inactive; negative”, the mutagenic call (Test System: AMES SALMONELLA TYPHIMURIUM, Strain/Indicator: TA104, Metabolic Activation: NONE, Method: STANDARD PLATE) was “inactive; negative” and the mutagenic call (Test System: AMES SALMONELLA TYPHIMURIUM, Strain/Indicator: TA104, Metabolic Activation: RAT, LIVER, S-9, Method: STANDARD PLATE) was “inactive; negative”. The mutagenic call [5] was “inactive; negative”, the mutagenic call (Test System: AMES SALMONELLA TYPHIMURIUM, Strain/Indicator: TA1537, Metabolic Activation: RAT, LIVER, S-9, Method: STANDARD PLATE) was “inactive; negative” and the mutagenic call (Test System: AMES SALMONELLA TYPHIMURIUM, Strain/Indicator: TA1538, Metabolic Activation: NONE, Method: STANDARD PLATE) was “inactive; negative”. The mutagenic call (Test System: AMES SALMONELLA TYPHIMURIUM, Strain/Indicator: TA1538, Metabolic Activation: RAT, LIVER, S-9, Method: STANDARD PLATE) was “inactive; negative”.

In the case of `CN(Cc1ccccc1)C(=O)CBr`, the mutagenic call (Test System: AMES SALMONELLA TYPHIMURIUM, Strain/Indicator: TA100, Metabolic Activation: MOUSE, LIVER, S-9, AROCLOR 1254, Method: STANDARD PLATE) is reported as “inactive; negative” and the mutagenic call [2] is reported as “inactive; negative”.
